Measurements as given in BigSolDB 2.1.

O=[N+]([O-])c1cc[nH]n1
solubility (mole fraction)
Conditions	283.15 K	288.15 K	293.15 K	298.15 K	303.15 K	308.15 K	313.15 K	318.15 K	323.15 K
in THF	0.00254	0.00305	0.00386	0.00456	0.00553	0.00654	0.00761	0.00903	0.0106
in acetone	0.0129	0.0152	0.0177	0.0202	0.0228	0.0261	0.0301	0.0339	0.0376
in acetonitrile	0.0148	0.017	0.0195	0.0223	0.0254	0.0289	0.0327	0.037	0.0418
in benzene	0.00052	0.00066	0.00086	0.00109	0.00139	0.00171	0.00215	0.00265	0.00323
in ethanol	0.0254	0.0292	0.0328	0.0364	0.041	0.0449	0.0548	0.0599	0.0646
in ethyl acetate	0.00586	0.00728	0.00905	0.0107	0.0133	0.0163	0.0196	0.0236	0.0282
in isopropyl acetate	0.00234	0.00292	0.00364	0.00456	0.00566	0.00695	0.00849	0.0102	0.0125
